Measured values published in patent US9642829B2, “Antifungal compound and uses thereof” (The University of Hong Kong, priority 2012, dated 2017).
Each block holds one compound with its values, some of them ahead of it.

Legend:
C. albicans biofilms = assay: Mono species Candida biofilm MIC, XTT assay; format: cell-based, Candida albicans; details: for Minimum inhibitory concentration of 48 h Candida biofilms: 48 h C. albicans biofilms; for Biofilm MIC90: 24 h C. albicans biofilms, 24 h drug exposure, XTT
Protocol: (§1) For instance, we have previously shown the resistance of Candida biofilms against amphotericin and caspofungin. Therefore, next using standard biofilm assays we have established in our laboratory, we examined the effect of SM21 against Candida biofilms. In brief, Candida cells were grown in SDA medium at 37° C. for 18 h. Then a loopful of the yeast was inoculated into the yeast nitrogen base (YNB; Difco) medium supplemented with 50 mM glucose in a rotary shaker at 75 rpm. After overnight broth culture, the yeasts were harvested in the late exponential growth phase and washed twice with 20 ml of phosphate buffer saline (PBS; pH 7.2. 0.1 M) prior to use in the biofilm studies. Candida biofilms were developed according to a previously published protocol. In brief, washed yeast cells were resuspended in YNB supplemented with 100 mM glucose and adjusted to an optical density of 0.38 at 520 nm (1×10^7 cells/ml). The standard cell suspension was used immediately to develop biofilms on commercially available presterilized, polystyrene, 96-well plate (IWAKI, Tokyo, Japan). At first, 100 μl of standardized cell suspension (1×10^7 cells/ml) was pipetted into each well of a microtiter plate and incubated for 1.5 h at 37° C. in a shaker at 75 rpm to permit yeast adherence to the well surface (adherence phase). For controls, a well of each microtiter plate was handled in an identical fashion except that no Candida suspension was added. Following the adhesion phase, the cell suspensions were aspirated, and each well washed with 100 μl of PBS to remove loosely adherent cells. 200 μl of YNB with 100 mM glucose were then pipetted into each of the washed wells and the plates incubated at 37° C. in a shaker at 75 rpm for 24 or 48 h. After biofilm growth phase microscopic examination of the cultures were performed to rule out contamination. Then, the suspending medium was aspirated and biofilms were washed with 100 μl PBS to remove the nonadherent cells. The stock solutions were diluted twofold with RPMI 1640 supplemented with 2% glucose to obtain SM21 concentration from 100 to 0.2 μg/ml drug concentrations. In parallel, other antifungal agents such as caspofungin (100 to 0.1 μg/ml) and amphotericin B (240 μg/ml to 0.225 μg/ml) was also prepared as describe above. A total of 100 μl of drug solution was added to the microtiter plate containing Candida biofilms. Biofilms were then incubated at 37° C. for 24 h with the antifungals and afterwards metabolic activity of fungal cells was determined by the XTT [2,3-bis(2-methoxy-4-nitro-5-sulfophenyl)-2H-tetrazolium-5-carboxanilide sodium salt] assay (17, 28). Candida biofilm MIC90 was defined as the lowest drug concentration with 90% reduction in opacity compared with the drug free control. Each experiment was repeated three times with four replicates.

C. glabrata biofilms = assay: Mono species Candida biofilm MIC, XTT assay; format: cell-based; details: 48 h C. glabrata biofilms
Protocol: as §1

C. krusei biofilms = assay: Mono species Candida biofilm MIC, XTT assay; format: cell-based; details: 48 h C. krusei biofilms
Protocol: as §1

resistant isolate T-1549 = assay: Antifungal activity compared with caspofungin and amphotericin B (FIG. 2, CLSI M44-A disc diffusion); format: cell-based, C. guilliermondii; details: resistant isolate T-1549 (FIG. 2C)
Excerpt: (§2) Oral Biosciences laboratory has one of the largest collections of fungal isolates, particular that of Candida species in the world. In our previous studies, we have found multidrug resistant clinical isolates of Candida species against existing antifungals. In particular, some of these strains are resistant to best antifungal agents to date such as caspofungin, amphotericin B and fluconazole. Therefore, we performed antifungal susceptibility testing for SM21 against these drug resistant Candida isolates suing CLSI M27A brothmicrodultion assay and CLSI M44-A disc diffusion assay.

C. krusei = assay: Antifungal susceptibility (MIC/MFC), CLSI criteria; format: cell-based, Candida krusei; details: C. krusei ATCC; 0.5 McFarland inoculum (10^6 cells/ml)
Protocol: (§3) Antifungal activity of the small molecules was evaluated using USA standards, Clinical and Laboratory Standards Institute (CLSI) criteria. In brief, inocula from 24 h Candida cultures on Sabourauds's dextore agar were standardized to a turbidity equivalent of 0.5 McFarland standards at 520 nm with a spectrophotometer. The suspensions were further diluted in Rosewell Park Memorial Institute (RPMI) 1640 medium (Life technologies, New York, USA) to yield an inoculum concentration of approximately 0.5 1×10^3 to 2.5 1×10^3 cells/ml. Minimum inhibitory concentration (MIC) and minimum fungicidal concentration (MFC) assay was performed in 96-well plates (Iwaki, Tokyo, Japan) and each of the Candida species was exposed to a double dilution of SM21. Amphotericin B was used as a positive control. All the experiments were preformed three occasions with duplicates for all isolates. The plates were incubated at 35° C. for 48 h to evaluate MIC. In the case of Cryotococcus neoformans, reading were taken after 72 h. Aforementioned assay was performed for C. albicans ATCC 90028, C. albicans SC5314 and 10 C. albicans clinical isolates. Moreover, MIC/MFC determination was carried out for other fungal species such as C. glabrata, C. krusei, C. tropicalis, C. parapsilosis, C. neoformans, Aspergillus fumigates and Penicillium marneffei. […]

C. parapsilosis = assay: Antifungal susceptibility (MIC/MFC), CLSI criteria; format: cell-based, Candida parapsilosis; details: C. parapsilosis ATCC; 0.5 McFarland inoculum (10^6 cells/ml)
Protocol: as §3

[1] = test system: C. albicans SC5314 and C. albicans ATCC 90028; assay: Antifungal activity compared with caspofungin and amphotericin B (FIG. 2, CLSI M44-A disc diffusion); format: cell-based, Candida albicans
Excerpt: as §2

Penicillium marneffei = assay: Antifungal susceptibility (MIC/MFC), CLSI criteria; format: cell-based; details: 0.5 McFarland inoculum (10^6 cells/ml)
Protocol: (§4) Antifungal activity of the small molecules was evaluated using USA standards, Clinical and Laboratory Standards Institute (CLSI) criteria. In brief, inocula from 24 h Candida cultures on Sabourauds's dextore agar were standardized to a turbidity equivalent of 0.5 McFarland standards at 520 nm with a spectrophotometer. The suspensions were further diluted in Rosewell Park Memorial Institute (RPMI) 1640 medium (Life technologies, New York, USA) to yield an inoculum concentration of approximately 0.5 1×10^3 to 2.5 1×10^3 cells/ml. Minimum inhibitory concentration (MIC) and minimum fungicidal concentration (MFC) assay was performed in 96-well plates (Iwaki, Tokyo, Japan) and each of the Candida species was exposed to a double dilution of SM21. Amphotericin B was used as a positive control. All the experiments were preformed three occasions with duplicates for all isolates. The plates were incubated at 35° C. for 48 h to evaluate MIC. In the case of Cryotococcus neoformans, reading were taken after 72 h. Aforementioned assay was performed for C. albicans ATCC 90028, C. albicans SC5314 and 10 C. albicans clinical isolates. Moreover, MIC/MFC determination was carried out for other fungal species such as C. glabrata, C. krusei, C. tropicalis, C. parapsilosis, C. neoformans, Aspergillus fumigates and Penicillium marneffei. […] Next using dose-dependent assay we tested that MIC/MFC of SM21 from 10^3 cells/ml to 10^7 cells/ml of C. albicans (Table 2). Each of the foregoing experiment was repeated on three different occasions.

Aspergillus fumigatus = assay: Antifungal susceptibility (MIC/MFC), CLSI criteria; format: cell-based; details: 0.5 McFarland inoculum (10^6 cells/ml)
Protocol: as §4

C. albicans [2] = assay: Dose-dependent assay of MIC/MFC at different cell densities; format: cell-based, Candida albicans; parameters: unit not given here
Protocol: as §4

C. glabrata = assay: Antifungal susceptibility (MIC/MFC), CLSI criteria; format: cell-based, Candida glabrata; details: C. glabrata ATCC; 0.5 McFarland inoculum (10^6 cells/ml)
Protocol: as §3

C. tropicalis = assay: Antifungal susceptibility (MIC/MFC), CLSI criteria; format: cell-based, Candida tropicalis; details: C. tropicalis ATCC; 0.5 McFarland inoculum (10^6 cells/ml)
Protocol: as §3

C. albicans [3] = assay: Antifungal susceptibility (MIC/MFC), CLSI criteria, 96-well double dilution; format: cell-based, Candida albicans; details: 0.5 McFarland inoculum (10^6 cells/ml)
Protocol: as §4

C. neoformans = assay: Antifungal susceptibility (MIC/MFC), CLSI criteria, reading after 72 h; format: cell-based, Cryptococcus neoformans; details: 0.5 McFarland inoculum (10^6 cells/ml)
Protocol: as §3

[4] = C. albicans ATCC 90028, CLSI quality control strain (FIG. 2B)

SMILES: CC(=O)N1CCN(c2ccc(OCC3COC(Cn4ccnc4)(c4ccc(Cl)cc4Cl)O3)cc2)CC1 (stereo not shown) [Ketoconazole]
Minimum inhibitory concentration of 48 h Candida biofilms (C. albicans biofilms): 64 µg/mL
Minimum inhibitory concentration of 48 h Candida biofilms (C. glabrata biofilms): 64 µg/mL
Minimum inhibitory concentration of 48 h Candida biofilms (C. krusei biofilms): 64 µg/mL

Biofilm MIC90 (C. albicans biofilms): 32 µg/mL
Susceptibility (MIC90) (C. krusei): 0.4 µg/mL
Susceptibility (MIC90) (C. parapsilosis): 0.8 µg/mL
Susceptibility (MIC90) (Penicillium marneffei): 0.05 µg/mL
Susceptibility (MIC90) (Aspergillus fumigatus): 1.56 µg/mL
MIC/MFC (C. albicans [2]; C. albicans 10^4 cells/ml): 0.2
MIC/MFC (C. albicans [2]; C. albicans 10^5 cells/ml): 0.2
MIC/MFC (C. albicans [2]; C. albicans 10^6 cells/ml): 0.2
MIC/MFC (C. albicans [2]; C. albicans 10^7 cells/ml): 0.8
Susceptibility (MIC90) (C. glabrata): 0.4 µg/mL
Susceptibility (MIC90) (C. tropicalis): 0.8 µg/mL
Susceptibility (MIC90) (C. albicans [3]; C. albicans ATCC 90028): 0.2 µg/mL
Susceptibility (MIC90) (C. albicans [3]; C. albicans CL1): 0.2 µg/mL
Susceptibility (MIC90) (C. albicans [3]; C. albicans CL2): 0.4 µg/mL
Susceptibility (MIC90) (C. albicans [3]; C. albicans CL3): 0.4 µg/mL
Susceptibility (MIC90) (C. albicans [3]; C. albicans CL4): 0.2 µg/mL
Susceptibility (MIC90) (C. albicans [3]; C. albicans CL5): 0.2 µg/mL
Susceptibility (MIC90) (C. albicans [3]; C. albicans CL6): 0.2 µg/mL
Susceptibility (MIC90) (C. albicans [3]; C. albicans CL7): 0.2 µg/mL
Susceptibility (MIC90) (C. albicans [3]; C. albicans CL8): 0.4 µg/mL
Susceptibility (MIC90) (C. albicans [3]; C. albicans CL9): 0.4 µg/mL
Susceptibility (MIC90) (C. albicans [3]; C. albicans CL10): 0.2 µg/mL
Susceptibility (MIC90) (C. albicans [3]; C. albicans SC5314): 0.2 µg/mL
Susceptibility (MIC90) (C. neoformans): 0.4 µg/mL
SMILES: C[C@@H]1[C@H](O)[C@@H](C)/C=C/C=C/C=C/C=C/C=C/C=C/C=C/[C@H](O[C@@H]2O[C@H](C)[C@@H](O)[C@H](N)[C@@H]2O)C[C@@H]2O[C@](O)(C[C@@H](O)C[C@@H](O)[C@H](O)CC[C@@H](O)C[C@@H](O)CC(=O)O[C@H]1C)C[C@H](O)[C@H]2C(=O)O [Amphotericin B, reference compound]
Effectiveness against resistant isolate (resistant isolate T-1549): only SM21 was effective
Minimum inhibitory concentration of 48 h Candida biofilms (C. albicans biofilms): 32 µg/mL
Susceptibility of the strain to the agent [1, 4]: susceptible
Susceptibility of the strain to the agent ([1]; C. albicans SC5314 (FIG. 2A)): susceptible
Minimum inhibitory concentration of 48 h Candida biofilms (C. glabrata biofilms): 16 µg/mL
Minimum inhibitory concentration of 48 h Candida biofilms (C. krusei biofilms): 32 µg/mL

Biofilm MIC90 (C. albicans biofilms): 50 µg/mL
SMILES: CC[C@H](C)C[C@H](C)CCCCCCCCC(=O)N[C@H]1C[C@@H](O)[C@@H](NCCN)NC(=O)[C@@H]2[C@@H](O)CCN2C(=O)[C@H]([C@H](O)CCN)NC(=O)[C@H]([C@H](O)[C@@H](O)c2ccc(O)cc2)NC(=O)[C@@H]2C[C@@H](O)CN2C(=O)[C@H]([C@@H](C)O)NC1=O [Caspofungin]
Effectiveness against resistant isolate (resistant isolate T-1549): only SM21 was effective
Minimum inhibitory concentration of 48 h Candida biofilms (C. albicans biofilms): 100 µg/mL
Susceptibility of the strain to the agent [1, 4]: susceptible
Susceptibility of the strain to the agent ([1]; C. albicans SC5314 (FIG. 2A)): susceptible
Minimum inhibitory concentration of 48 h Candida biofilms (C. glabrata biofilms): 100 µg/mL
Minimum inhibitory concentration of 48 h Candida biofilms (C. krusei biofilms): 100 µg/mL

SMILES: Nc1nc(=O)[nH]cc1F [5-fluorocytosine]
Minimum inhibitory concentration of 48 h Candida biofilms (C. albicans biofilms): 420 µg/mL
Minimum inhibitory concentration of 48 h Candida biofilms (C. glabrata biofilms): 420 µg/mL
Minimum inhibitory concentration of 48 h Candida biofilms (C. krusei biofilms): 250 µg/mL
